{"source": "patent US9302993B2", "about": "“8-hydroxy quinoline derivatives” (PRANA BIOTECHNOLOGY LIMITED, priority 2002, dated 2016)", "key": {"[1]": {"assay": "E Log D, chromatographic method (Assay 13)", "assay_type": "physicochemical", "settings": "SUPELCOSIL LC-ABZ column with octanol saturated mobile phase, pH 7.4; read-out: E Log D7.4", "procedure": "Effective Log D values were measured using a chromatographic method employing a SUPELCOSIL LC-ABZ column using an octanol saturated mobile phase at pH 7.4."}, "[2]": {"assay": "Pharmacokinetic profile, IV and oral (Assay 16)", "assay_type": "in vivo", "settings": "rat; for BA (%): oral, calculated using the truncated AUC; for clearance: read-out: Cltotal (mL/min/Kg), total plasma clearance", "procedure": "Assay 16. Pharmacokinetic Profile\n• Intravenous infusion of PBT-1033; 2 mg/Kg (1 mL of a 0.5 mg/mL solution in 7.5% DMSO with 0.1 m Captisol in Citrate Buffer adjusted to pH 3.0) was administered over 5 minutes to 2 rats and arterial blood was sampled up to 24 hours. • Oral administration of PBT-1033; 30 mg/Kg (as a suspension in CMC-SSV*) via administered via oral gavage to 2 rats and arterial blood was sampled up to 26 hours. * Standard Suspending Vehicle—0.5% w/v Na-Carboxymethyl Cellulose (CMC), 5% v/v benzyl alcohol, 4% v/v Tween 80 in 0.9% NaCl. • Plasma concentrations of PBT-1033 were determined by LCMS (LOQ 3.7 nM). For rat 020710-D, an overlapping peak was present for PBT-1033.\n[formula] [formula] [formula] Calculations: • CLtotal=total plasma clearance after IV administration • Vdβ=volume of distribution during the elimination phase after IV administration • BA=oral bioavailability • AUCIV=area under the plasma concentration versus time profile from time zero to infinity after IV administration • AUCoral=area under the plasma concentration versus time profile from time zero to infinity after oral administration • β=terminal elimination rate constant after IV administration • The results are shown in FIG. 4(a). (b) PBT-1038 • Intravenous infusion of PBT-1038; (0.5 mg/Kg in 7.5% DMSO in Citrate Buffer pH 3.0) was administered over 5 minutes to 2 rats and arterial blood was sampled up to 24 hours. • Oral administration of PBT-1038; (30 mg/Kg as a 0.05% CMC suspension) via administered via oral gavage to 2 rats and arterial blood was sampled up to 24 hours. • Plasma concentrations of PBT-1038 were determined by MS (LOQ 3 nM)\n(c) PBT-1050 • Intravenous infusion of PBT-1050; (2 mg/Kg in 7.5% DMSO in Citrate Buffer pH 3.0) was administered over 5 minutes to 2 rats and arterial blood was sampled up to 24 hours. • Oral administration of PBT-1050; (30 mg/Kg as a 0.05% CMC suspension) was administered via oral gavage to 2 rats and arterial blood was sampled up to 24 hours. • Plasma concentrations of PBT-1050 were determined by MS (LOQ 3 nM)\n(d) PBT-1051 • Intravenous infusion of PBT-1051; 2 mg/Kg (1 mL of a 0.6 mg/mL solution in 7.5% DMSO in Citrate Buffer pH 3.0) was administered over 5 minutes to 2 rats and arterial blood was sampled up to 24 hours. • Oral administration of PBT-1051; 30 mg/Kg (as a suspension in CMC-SSV*) was administered via oral gavage to 2 rats and arterial blood was sampled up to 24 hours. * Standard Suspending Vehicle—0.5% w/v Na-Carboxymethyl Cellulose (CMC), 5% v/v benzyl alcohol, 4% v/v Tween 80 in 0.9% NaCl. • Plasma concentrations of PBT-1051 were determined by LCMS (LOQ 3.7 nM)"}, "[3]": {"system": "Aβ in extract of tissue from post mortem human AD brain", "assay": "Human brain amyloid solubilisation assay (Assay 9, BAS)", "assay_type": "biochemical", "settings": "solubilising plaques relative to PBS", "in_short": "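Plaque-bearing post mortem AD cortex homogenised in ice-cold PBS pH 7.4 and spun 100,000×g, 30 min to separate PBS-soluble supernatant from insoluble pellet. Aβ in each fraction resolved on Tris-Tricine 10-20% gels, immunoblotted with W02 antibody and ECL, quantified by densitometry against synthetic Aβ40 standards (0.5, 1, 2 ng).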"}, "[4]": {"settings": "PO 30 mg/Kg, individual rats, listed as PBT 1050, 30 mg/kg"}, "[5]": {"settings": "plasma, po, 30 mg/kg, PO 30 mg/Kg, Mean ± SD"}, "[6]": {"settings": "plasma, po, 30 mg/kg, PO 30 mg/Kg, Mean ± SD, read-out: Tmax (converted)"}, "[7]": {"settings": "IV, individual rats, listed as PBT 1033, hydrochloride"}, "[8]": {"settings": "PO 30 mg/Kg, individual rats, listed as PBT 1033, hydrochloride, 30 mg/kg"}, "[9]": {"settings": "plasma, po, 30 mg/kg, PO 30 mg/Kg, individual rats"}, "[10]": {"settings": "plasma, po, 30 mg/kg, PO 30 mg/Kg, individual rats, read-out: Tmax (converted)"}, "[11]": {"settings": "IV, individual rats, listed as PBT 1051, hydrochloride"}, "[12]": {"settings": "PO 30 mg/Kg, individual rats, listed as PBT 1051, hydrochloride, 30 mg/kg"}}, "note": "Values joined by “and” are separate entries in the source; they are usually repeats but may differ in a detail not shown here. Equal values may be shown once. Read-outs that look alike come from different tables or passages of the source."}
{"smiles": "Cn1cnc(CCNC(=O)c2ccc3c(Cl)cc(Cl)c(O)c3n2)c1", "note": "[compound 1050, 5,7-dichloro-8-hydroxyquinoline-2-carboxylic acid [2-(1-methyl-1H-imidazol-4-yl)-ethyl]-amide]", "values": [{"measurement": "chromatographic logD", "setting": "[1]", "value": 2.98}, {"measurement": "Cmax", "setting": "[2]; IV, individual rats, listed as PBT 1050", "value": "33.9 µM and 16.9 µM"}, {"measurement": "Cmax", "setting": "[2]; [4]", "value": "61 µM and 7.03 µM"}, {"measurement": "Tmax", "setting": "[2]; [4]", "value": "45 min and 120 min"}, {"measurement": "Cmax", "setting": "[2]; plasma, iv, 2 mg/kg, Mean ± SD", "value": "25.4 ± 12.1", "unit": "µM"}, {"measurement": "Cmax", "setting": "[2]; [5]", "value": "34 ± 38.2", "unit": "µM"}, {"measurement": "Tmax", "setting": "[2]; [6]", "value": 82.5, "unit": "min"}]}
{"smiles": "CN(C)Cc1ccc2c(Cl)cc(Cl)c(O)c2n1.Cl", "note": "[compound 1033, 5,7-Dichloro-2-dimethylaminomethyl-quinolin-8-ol hydrochloride]", "values": [{"measurement": "chromatographic logD", "setting": "[1]", "value": 1.32}, {"measurement": "BAS Score", "setting": "[3]", "value": "+"}, {"measurement": "VdB", "setting": "[2]; IV, Mean ± SD", "value": "9.03 ± 3.07", "unit": "L/kg"}, {"measurement": "Cltotal (mL/min/Kg), total plasma clearance", "setting": "[2]; [7]", "value": 145.69, "unit": "mL/min/kg"}, {"measurement": "Cmax", "setting": "[2]; [7]", "value": "0.7 µM and 2.48 µM"}, {"measurement": "Tmax", "setting": "[2]; [7]", "value": "20 min and 5 min"}, {"measurement": "VdB", "setting": "[2]; [7]", "value": "6.86 L/kg and 11.20 L/kg"}, {"measurement": "t1/2", "setting": "[2]; [7]", "value": 53.29, "unit": "min"}, {"measurement": "Cmax", "setting": "[2]; [8]", "value": 1.36, "unit": "µM"}, {"measurement": "Tmax", "setting": "[2]; [8]", "value": 60, "unit": "min"}, {"measurement": "BA (%)", "setting": "[2]; Mean ± SD", "value": "25.25 ± 0.29", "unit": "%"}, {"measurement": "BA (%)", "setting": "[2]; individual rats, listed as PBT 1033, hydrochloride", "value": "25.45% and 25.04%"}, {"measurement": "clearance", "setting": "[2]; plasma, iv, 2 mg/kg, IV, Mean ± SD", "value": "118 ± 38.7", "unit": "mL/min/kg"}, {"measurement": "Tmax", "setting": "[2]; plasma, iv, 2 mg/kg, IV, Mean ± SD, read-out: Tmax (converted)", "value": 12.5, "unit": "min"}, {"measurement": "clearance", "setting": "[2]; plasma, iv, 2 mg/kg, IV, individual rats", "value": 91, "unit": "mL/min/kg"}, {"measurement": "Cmax", "setting": "[2]; plasma, iv, 2 mg/kg, Mean ± SD", "value": "1.59 ± 1.26", "unit": "µM"}, {"measurement": "half-life", "setting": "[2]; plasma, iv, 2 mg/kg, Mean ± SD", "value": "52.8 ± 0.73", "unit": "min"}, {"measurement": "half-life", "setting": "[2]; plasma, iv, 2 mg/kg, individual rats", "value": 52.2, "unit": "min"}, {"measurement": "Cmax", "setting": "[2]; [5]", "value": "1.69 ± 0.47", "unit": "µM"}, {"measurement": "Tmax", "setting": "[2]; [6]", "value": 52.5, "unit": "min"}, {"measurement": "Cmax", "setting": "[2]; [9]", "value": 2.02, "unit": "µM"}, {"measurement": "Tmax", "setting": "[2]; [10]", "value": 45, "unit": "min"}]}
{"smiles": "CCNCc1ccc2c(Cl)cc(Cl)c(O)c2n1.Cl", "note": "[compound 1051, 5,7-dichloro-2-ethylaminomethyl-quinolin-8-ol hydrochloride]", "values": [{"measurement": "chromatographic logD", "setting": "[1]", "value": 2.64}, {"measurement": "BAS Score", "setting": "[3]", "value": "+"}, {"measurement": "VdB", "setting": "[2]; IV, Mean ± SD", "value": "9.64 ± 0.77", "unit": "L/kg"}, {"measurement": "Cltotal (mL/min/Kg), total plasma clearance", "setting": "[2]; [11]", "value": 135.58, "unit": "mL/min/kg"}, {"measurement": "Cmax", "setting": "[2]; [11]", "value": 3.03, "unit": "µM"}, {"measurement": "VdB", "setting": "[2]; [11]", "value": "10.19 L/kg and 9.10 L/kg"}, {"measurement": "t1/2", "setting": "[2]; [11]", "value": 46.52, "unit": "min"}, {"measurement": "Cmax", "setting": "[2]; [12]", "value": "3.18 µM and 1.5 µM"}, {"measurement": "Tmax", "setting": "[2]; [12]", "value": 30, "unit": "min"}, {"measurement": "t1/2", "setting": "[2]; [12]", "value": 365.72, "unit": "min"}, {"measurement": "BA (%)", "setting": "[2]; Mean ± SD", "value": "27.75 ± 14.43", "unit": "%"}, {"measurement": "BA (%)", "setting": "[2]; individual rats, listed as PBT 1051, hydrochloride", "value": "37.96% and 17.55%"}, {"measurement": "clearance", "setting": "[2]; plasma, iv, 2 mg/Kg, IV, Mean ± SD", "value": "144 ± 12.5", "unit": "mL/min/kg"}, {"measurement": "clearance", "setting": "[2]; plasma, iv, 2 mg/Kg, IV, individual rats", "value": 153, "unit": "mL/min/kg"}, {"measurement": "half-life", "setting": "[2]; plasma, iv, 2 mg/Kg, Mean ± SD", "value": "46.3 ± 0.32", "unit": "min"}, {"measurement": "half-life", "setting": "[2]; plasma, iv, 2 mg/Kg, individual rats", "value": 46.1, "unit": "min"}, {"measurement": "Cmax", "setting": "[2]; plasma, iv, Mean ± SD", "value": "2.99 ± 0.05", "unit": "µM"}, {"measurement": "Cmax", "setting": "[2]; plasma, iv, individual rats", "value": 2.96, "unit": "µM"}, {"measurement": "Cmax", "setting": "[2]; [5]", "value": "2.34 ± 1.18", "unit": "µM"}, {"measurement": "half-life", "setting": "[2]; [5]", "value": "283 ± 117", "unit": "min"}, {"measurement": "Tmax", "setting": "[2]; [6]", "value": 45, "unit": "min"}, {"measurement": "half-life", "setting": "[2]; [9]", "value": 200, "unit": "min"}, {"measurement": "Tmax", "setting": "[2]; [10]", "value": 60, "unit": "min"}]}
{"smiles": "O=C(NCCc1c[nH]cn1)c1ccc2c(Cl)cc(Cl)c(O)c2n1", "note": "[compound 1038, 5,7-Dichloro-8-hydroxyquinoline-2-carboxylic acid [2-(1H-imidazol-4-yl)-ethyl]-amide]", "values": [{"measurement": "chromatographic logD", "setting": "[1]", "value": 2.92}, {"measurement": "BAS Score", "setting": "[3]", "value": "+"}, {"measurement": "Cmax", "setting": "[2]; IV, individual rats, listed as PBT 1038", "value": "8.06 µM and 2.84 µM"}, {"measurement": "Tmax", "setting": "[2]; PO 30 mg/Kg, individual rats", "value": 45, "unit": "min"}, {"measurement": "Cmax", "setting": "[2]; PO 30 mg/Kg, individual rats, listed as PBT 1038, 30 mg/kg", "value": 68.5, "unit": "µM"}, {"measurement": "Cmax", "setting": "[2]; plasma, iv, Mean ± SD", "value": "5.45 ± 3.7", "unit": "µM"}, {"measurement": "Cmax", "setting": "[2]; [5]", "value": "63.1 ± 7.57", "unit": "µM"}, {"measurement": "Tmax", "setting": "[2]; [6]", "value": 45, "unit": "min"}, {"measurement": "Cmax", "setting": "[2]; [9]", "value": 57.8, "unit": "µM"}, {"measurement": "Tmax", "setting": "[2]; [10]", "value": 45, "unit": "min"}]}
